In patent US20260174786A1, “A NITROGEN-CONTAINING SPIROCYCLIC COMPOUND, PHARMACEUTICAL COMPOSITION AND USE THEREOF” (Prime Gene Therapeutics Co., Ltd., priority 2022, published 2026):

What was measured:
hTRPV3 = molecular target: T1, hTRPV3 (Homo sapiens, UniProt Q8NET8); experiment: Whole cell patch clamp inhibition rate test on HEK-293 cells instantaneously expressing TRPV3; assay type: cell-based; conditions: HEK293; hTRPV3, single concentration 0.3 μM
T1 construct: expressed in transfected cells; host or cells: HEK-293
T1 sequence (Q8NET8 1-790): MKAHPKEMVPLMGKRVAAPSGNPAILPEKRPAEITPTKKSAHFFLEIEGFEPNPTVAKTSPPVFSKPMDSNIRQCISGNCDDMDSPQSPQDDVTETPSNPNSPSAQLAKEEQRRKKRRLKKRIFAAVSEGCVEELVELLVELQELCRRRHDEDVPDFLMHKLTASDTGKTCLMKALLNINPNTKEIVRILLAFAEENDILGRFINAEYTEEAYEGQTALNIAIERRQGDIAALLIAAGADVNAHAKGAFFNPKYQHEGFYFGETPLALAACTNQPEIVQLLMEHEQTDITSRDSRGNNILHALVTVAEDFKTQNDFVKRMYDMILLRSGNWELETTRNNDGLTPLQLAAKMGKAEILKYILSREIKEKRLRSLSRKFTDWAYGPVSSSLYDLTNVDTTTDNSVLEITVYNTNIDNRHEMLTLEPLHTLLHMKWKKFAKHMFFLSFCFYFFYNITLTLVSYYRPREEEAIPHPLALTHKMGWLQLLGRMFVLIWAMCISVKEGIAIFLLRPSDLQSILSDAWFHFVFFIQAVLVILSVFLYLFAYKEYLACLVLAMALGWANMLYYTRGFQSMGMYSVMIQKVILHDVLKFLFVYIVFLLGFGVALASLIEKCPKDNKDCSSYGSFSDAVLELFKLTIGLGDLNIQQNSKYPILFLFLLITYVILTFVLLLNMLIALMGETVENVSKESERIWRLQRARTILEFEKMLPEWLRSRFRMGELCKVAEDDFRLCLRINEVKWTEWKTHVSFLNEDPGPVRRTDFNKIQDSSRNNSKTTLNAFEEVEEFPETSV
Method in brief: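 HEK-293 cells transiently transfected with TRPV3, recorded next-but-one day by whole-cell patch clamp at room temperature: holding −80 mV, ramp −100 to 100 mV over 100 ms every 5 s, peak current monitored. Ascending concentrations perfused, 5 min each; each cell its own control, at least two cells per concentration.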

[1] = Stability assessment of compounds at room temperature under 92.5% humidity (LC-MS); assay type: physicochemical; conditions: 92.5% humidity (open), after 5 days
Procedure: Taking the compound of Example 21 and KM-001-E1 in WO2021154966A1 as examples, the stability thereof was compared:
Compound of Example 21 and KM-001-E1 were accurately weighed and placed in penicillin bottles, and placed at room temperature under 92.5% humidity (open) conditions for 5-10 days to investigate the stability of the compounds.
• instrument: Thermo U3000-ISQEC • column: Xtimate UHPLC C18 1.8 μm 4.6*50 mm • Column temperature: 35° C. • wavelength: 210 nm, 254 nm • mobile phase A: 0.05% formic acid aqueous solution; mobile phase B: 0.05% formic acid acetonitrile; gradient: 30% B 0-1.2 min, 95% B 1.2-3.3 min, 30% B 3.3-4.5 min;
Analyzing the degradation impurities of each compound under 92.5% humidity conditions using LC-MS: The main impurities in Example 21 had m/z 427.17, with a retention time of 2.55 minutes. After being left for 10 days, the peak area proportion was only 0.3%; The main impurities in KM-001-E1 has m/z=431.14 and m/z=415.16, with retention times of 2.31 minutes and 2.64 minutes, respectively. […] Based on LC-MS and NMR data analysis, it can be inferred that the main impurities produced in Example 21 are ketones, while the main impurities produced in KM-001-E1 are aldehydes and carboxylic acids.

inhibition at 0.3 µM (hTRPV3) [%] | peak area proportion of main impurity (m/z=415.16) [1] [%] | peak area proportion of main impurity (m/z=431.14) [1] [%] | SMILES
70 to 100 | – | – | O=C(c1ccc(F)cn1)N1CCC2(CC(O)c3cc(-c4ccc(F)cc4C4CC4)ccc32)C1 (stereo not shown) [Example 163, (5-(2-cyclopropyl-4-fluorophenyl)-3-hydroxy-2,3-dihydrospiro[indene-1,3′-pyrrolidine]-1′-yl)(5-fluoropyridin-2-yl) ketone]
50 to 70 | – | – | CC(C)(C#N)c1ccccc1-c1ccc2c(c1)C(O)CC21CCN(C(=O)c2ccc(F)cn2)C1 (stereo not shown) [Example 164, 2-(2-(1′-(5-fluoropyridoyl)-3-hydroxy-2,3-dihydrospiro[indene-1,3′-pyrrolidine]-5-yl)phenyl)-2-methyl propionitrile]
– | 2.43 | 2.48 | O=C(c1ccc(F)cn1)N1CC[C@H](c2ccc(-c3ccccc3C3CC3)cc2CO)C1 [KM-001-E1]
